The record followed here is ChEMBL document CHEMBL4334513, “Discovery of a Potent, Selective, and Orally Available MTHFD2 Inhibitor (DS18561882) with in Vivo Antitumor Activity” (J Med Chem, 2019).

System in one series: not listed separately
The series can be described thus: Lipophilicity, logP of compound. It is filed as physicochemical. As to conditions: octanol/water.
A word on the logP: it is a log measure of how a compound divides between an organic and an aqueous phase. A high value points to higher lipophilicity. Compound `Cc1c(N2CCN(C)[C@H](C)C2)ccc2c3c(c(=O)oc12)CN(C(=O)c1ccc(NS(C)(=O)=O)c(Cl)c1)CC3` yielded a logP of 2.

The next series concerns the target T1, C-1-tetrahydrofolate synthase, cytoplasmic (Homo sapiens, UniProt P11586).
T1 sequence (P11586 whole entry): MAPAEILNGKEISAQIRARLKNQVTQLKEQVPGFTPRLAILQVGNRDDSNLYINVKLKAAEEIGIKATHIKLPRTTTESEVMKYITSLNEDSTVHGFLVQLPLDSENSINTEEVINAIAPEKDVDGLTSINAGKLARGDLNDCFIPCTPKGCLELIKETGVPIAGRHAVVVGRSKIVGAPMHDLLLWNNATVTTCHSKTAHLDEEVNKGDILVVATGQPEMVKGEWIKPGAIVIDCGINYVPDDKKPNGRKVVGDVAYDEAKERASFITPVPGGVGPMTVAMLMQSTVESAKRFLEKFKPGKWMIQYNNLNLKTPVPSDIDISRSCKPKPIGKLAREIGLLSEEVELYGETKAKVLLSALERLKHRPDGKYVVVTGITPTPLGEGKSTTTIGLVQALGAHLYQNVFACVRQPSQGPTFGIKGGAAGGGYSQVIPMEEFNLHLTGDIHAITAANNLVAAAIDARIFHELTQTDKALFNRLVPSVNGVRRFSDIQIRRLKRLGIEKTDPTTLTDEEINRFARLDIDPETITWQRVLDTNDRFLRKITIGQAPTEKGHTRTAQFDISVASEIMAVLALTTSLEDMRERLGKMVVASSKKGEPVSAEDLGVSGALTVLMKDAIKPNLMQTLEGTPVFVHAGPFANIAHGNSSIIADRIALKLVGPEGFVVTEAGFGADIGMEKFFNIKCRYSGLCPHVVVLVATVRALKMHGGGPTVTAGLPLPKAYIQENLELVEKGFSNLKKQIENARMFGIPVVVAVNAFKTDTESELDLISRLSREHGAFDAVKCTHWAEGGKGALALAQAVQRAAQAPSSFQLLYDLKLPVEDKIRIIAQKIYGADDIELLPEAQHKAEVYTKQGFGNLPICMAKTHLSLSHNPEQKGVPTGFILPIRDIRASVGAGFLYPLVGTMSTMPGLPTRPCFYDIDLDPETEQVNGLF
Conditions: not given
Broadly, the IC50 is the concentration at which inhibition is half-maximal. With `Cc1cccc2oc(=O)c3c(c12)CCN(C(=O)c1ccc(C(=O)O)cc1)C3`, the IC50 is more than 30000 nM.
Turning to `Cc1c(OCCN(C)C)ccc2c3c(c(=O)oc12)CN(C(=O)c1ccc(C(=O)O)cc1)CC3`, the IC50 stood at 5000 nM.
In turn, `CN(C)c1ccc(-c2ccc3c4c(c(=O)oc3c2)CN(C(=O)c2ccc(C(=O)O)cc2)CC4)cc1` came in with an IC50 of 5400 nM.
The same measure, in the same setting: for `CN(C)Cc1ccc(-c2ccc3c4c(c(=O)oc3c2)CN(C(=O)c2ccc(C(=O)O)cc2)CC4)cc1` the value was 23000 nM; for `Cc1cc2c3c(c(=O)oc2cc1OCCN(C)C)CN(C(=O)c1ccc(C(=O)O)cc1)CC3`, more than 30000 nM; for `CN(C)CCCOc1ccc2c3c(c(=O)oc2c1)CN(C(=O)c1ccc(C(=O)O)cc1)CC3`, 18700 nM.
Still for that read-out and setting: for `Cc1c(OCCN(C)C)ccc2c3c(c(=O)oc12)CN(C(=O)c1ccc2c(c1)CS(=O)(=O)N2)CC3` the value was 8400 nM.
In turn, `CN(C)CCOc1ccc2c3c(c(=O)oc2c1)CN(C(=O)c1ccc(C(=O)O)cc1)CC3` came in with an IC50 of more than 30000 nM.
Still for that read-out and setting: in the case of `CN1CCC(Oc2ccc3c4c(c(=O)oc3c2)CN(C(=O)c2ccc(C(=O)O)cc2)CC4)CC1` it was 27000 nM.
On the same count and under the same terms, in the case of `CN1CCN(c2ccc3c4c(c(=O)oc3c2)CN(C(=O)c2ccc(C(=O)O)cc2)CC4)CC1` it was more than 30000 nM.

A further series has as its target T2, Bifunctional methylenetetrahydrofolate dehydrogenase/cyclohydrolase, mitochondrial (Homo sapiens, UniProt P13995).
T2 sequence (P13995 whole entry): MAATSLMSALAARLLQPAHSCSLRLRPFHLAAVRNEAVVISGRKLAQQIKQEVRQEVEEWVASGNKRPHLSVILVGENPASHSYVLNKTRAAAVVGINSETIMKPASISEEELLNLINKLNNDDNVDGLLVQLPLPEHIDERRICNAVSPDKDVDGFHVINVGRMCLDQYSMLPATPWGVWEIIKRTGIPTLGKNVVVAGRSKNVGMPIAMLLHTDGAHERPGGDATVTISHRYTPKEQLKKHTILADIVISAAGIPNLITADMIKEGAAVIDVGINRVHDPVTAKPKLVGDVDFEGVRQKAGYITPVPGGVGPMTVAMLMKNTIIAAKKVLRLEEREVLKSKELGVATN
The series can be described thus: Inhibition of recombinant MTHFD2 (unknown origin) using THF as substrate incubated for 30 mins in presence of NAD.
Conditions: not given
On to `Cc1cccc2oc(=O)c3c(c12)CCN(C(=O)c1ccc(C(=O)O)cc1)C3`, for which the IC50 came to 1300 nM.
The same measure, in the same setting: in the case of `Cc1c(N2CCN(C)[C@H](C)C2)ccc2c3c(c(=O)oc12)CN(C(=O)c1ccc(NS(C)(=O)=O)c(Cl)c1)CC3` it was 130 nM; in that of `Cc1c(OCCN(C)C)ccc2c3c(c(=O)oc12)CN(C(=O)c1ccc(C(=O)O)cc1)CC3`, 49 nM; in that of `CN(C)c1ccc(-c2ccc3c4c(c(=O)oc3c2)CN(C(=O)c2ccc(C(=O)O)cc2)CC4)cc1`, 3800 nM.
Still for that read-out and setting: for `CN(C)Cc1ccc(-c2ccc3c4c(c(=O)oc3c2)CN(C(=O)c2ccc(C(=O)O)cc2)CC4)cc1` the value was 340 nM.
Consider `Cc1cc2c3c(c(=O)oc2cc1OCCN(C)C)CN(C(=O)c1ccc(C(=O)O)cc1)CC3`, for which the IC50 was more than 30000 nM.
Still for that read-out and setting: for `CN(C)CCCOc1ccc2c3c(c(=O)oc2c1)CN(C(=O)c1ccc(C(=O)O)cc1)CC3` the value was 360 nM; for `Cc1c(OCCN(C)C)ccc2c3c(c(=O)oc12)CN(C(=O)c1ccc2c(c1)CS(=O)(=O)N2)CC3`, 53 nM.
The same measure, in the same setting: for `CN(C)CCOc1ccc2c3c(c(=O)oc2c1)CN(C(=O)c1ccc(C(=O)O)cc1)CC3` the value was 340 nM.
`CN1CCC(Oc2ccc3c4c(c(=O)oc3c2)CN(C(=O)c2ccc(C(=O)O)cc2)CC4)CC1`: the IC50 came out at 390 nM.
The same measure, in the same setting: in the case of `CN1CCN(c2ccc3c4c(c(=O)oc3c2)CN(C(=O)c2ccc(C(=O)O)cc2)CC4)CC1` it was 320 nM.

System in the next series: not listed separately
The series can be described thus: Antiproliferative activity against human MDA-MB-231-luc-D3H2LN cells assessed as inhibition of growth after 3 days by CellTiter Glo assay. As to conditions: 72 h. It counts as functional.
Broadly, the GI50 is the concentration giving 50% growth inhibition. Turning to `Cc1c(N2CCN(C)[C@H](C)C2)ccc2c3c(c(=O)oc12)CN(C(=O)c1ccc(NS(C)(=O)=O)c(Cl)c1)CC3`, the GI50 came out at 1700 nM.
